Test results published in patent publication US10456359B2, “Synergistic beverage composition” (Harsha Chigurupati, priority 2015, dated 2019).
Where a SMILES comes first, the peptide text is derived from it.

Experiments:
[1] = tested on: serum alanine aminotransferase (ALT); test: Hepatoprotection study, serum ALT, alcohol 5 days; assay type: in vivo, Wistar albino rats; settings: Pro: Protection (%), rats, alcohol 4 gm/kg/day p.o.
[2] = tested on: interleukin-12 (IL-12) from brain homogenate; test: Hangover study, IL-12 from brain homogenate, alcohol 1 day; assay type: in vivo, Wistar albino rats; design: concentration or dose not given beside the values; settings: 1 Day alcohol
[3] = tested on: Monocyte chemoattractant protein-1 (MCP-1) from brain homogenate; test: Hangover study, MCP-1 from brain homogenate, alcohol 1 day; assay type: in vivo, Wistar albino rats; settings: 1 Day alcohol
[4] = tested on: interleukin-12 (IL-12); test: Hangover study, serum IL-12, alcohol 1 day; assay type: in vivo, Wistar albino rats; design: concentration or dose not given beside the values; settings: 1 Day alcohol
Text: (§1) For hangover, 1 day immunology parameter were considered and for CNS, 5 days immunology parameter were considered.

[5] = tested on: serum C-reactive protein (CRP); test: Hangover study, serum CRP, alcohol 1 day; assay type: in vivo, Wistar albino rats; settings: 1 Day alcohol
Text: as §1

[6] = tested on: Monocyte chemoattractant protein-1 (MCP-1); test: Hangover study, serum MCP-1, alcohol 1 day; assay type: in vivo, Wistar albino rats; design: concentration or dose not given beside the values; settings: 1 Day alcohol
Procedure: (§2) The lowest detectable limit of the kit is 0.1 ng/ml (Wang L, Li Y, Chen J, et al. “Ischemic Cerebral Tissue and MCP-1 Enhance Rat Bone Marrow Stromal Cell Migration in Interface Culture.” Experimental Hematology, 30, 7, 2002, 831-836).
as §1

[7] = tested on: spatial learning and memory; test: Morris water maze task (escape latency), alcohol 5 days; assay type: in vivo, Wistar albino rats; settings: Pro: Protection (%), rats, alcohol 5 day
[8] = tested on: interleukin-12 (IL-12); test: CNS/immunology study, serum IL-12, alcohol 5 days; assay type: in vivo, Wistar albino rats; settings: Pro: Protection (%), rats, alcohol 5 Day
Text: as §1

[9] = tested on: Interferon gamma (IFN-γ); test: Hangover study, serum IFN-gamma, alcohol 1 day; assay type: in vivo, Wistar albino rats; design: concentration or dose not given beside the values; settings: 1 Day alcohol
Text: (§3) Distilled ethanol was obtained from Bengal Chemicals, West Bengal, India. Biochemical kits like AST, ALT, ALP and total protein were obtained from Span Diagnostics Ltd. Surat, India. Rat IL-12 ELISA kit (Elabscience Biotechnology Co. Ltd, WuHan, P.R.C.), Rat CRP ELISA kit (BD Biosciences, USA), Rat IFN-gamma ELISA kit (Biolegend, San Diego, Calif.) Rat MCP-1 ELISA kit (Elabscience Biotechnology Co. Ltd, WuHan, P.R.C.). All the chemicals used in the present study were of analytical grade and obtained from the following companies: Sigma (St. Louis, Mo., USA), Merck (Mumbai, India), S D fine chemicals (Mumbai, India) and Qualigen (Mumbai, India).
as §1

[10] = tested on: serum C-reactive protein (CRP); test: CNS/immunology study, serum CRP, alcohol 5 days; assay type: in vivo, Wistar albino rats; settings: Pro: Protection (%), rats, alcohol 5 Day
Text: as §1

[11] = tested on: acetylcholinesterase activity of brain homogenate; settings: Pro: Protection (%), rats, alcohol 5 Day
Procedure: (§4) We have included this parameter to evaluate cognition and memory deficit in experimental animals.
(§5) Experimental Design • (b) Animal study model 1: Saline/Alcohol (4.0 gm/kg/day, p.o.)/Formulation with alcohol (4.0 gm/kg/day, p.o.) were administered (fed orally by orogastric cannula) for one day. 12-16 hours after the dose the animals were sacrificed and blood samples will be collected for estimation of biochemical parameters. Whole brain without cerebellum were dissected out, 10% homogenate was prepared with 0.1 M PB (pH 7.4). The homogenate solution was centrifuged at 10000 rpm for 20 minutes at 4° C. and the supernatant was used for estimation of acetylcholinesterase activity, which was estimated by Ellman's method (Ellman G L et al. A new and rapid colorimetric determination of acetylcholinesterase activity. Biochem Pharmacol, 1961, 7:88.) • (c) Animal study model 2: Saline/Alcohol (4.0 gm/kg/day, p.o.)/Formulation with alcohol (4.0 gm/kg/day, p.o.) were administered (fed orally by orogastric cannula) for 5 consecutive days. 12-16 hours after the last dose, the animals were sacrificed and blood samples were collected for estimation of biochemical parameters. Whole brain without cerebellum were dissected out, 10% homogenate was prepared with 0.1 M PB (pH 7.4). The homogenate solution was centrifuged at 10000 rpm for 20 minutes at 4° C. and the supernatant was used for estimation of acetylcholinesterase activity. […] The latency period of day 5 (before alcohol) was compared with post alcohol latency period (Vorhees C V and Williams M T. Morris water maze: procedures for assessing spatial and related forms of learning and memory, Nat Protoc, 2006, 1(2): 848-58.). % Protection Calculated in Above Experiments: % Protection=1−[(T−NS)/(AL−NS)]×100 T=Mean value of drug treated, NS=Mean value of normal control, AL=Mean value of alcohol alone.
(§6) Male Wistar albino rats weighing 150-200 g were procured and randomly divided into groups consisting of twelve (12) animals in each group. Alcohol induced hangover and CNS related biochemical changes and memory function in rats by oral administration of 30% alcohol (4 gm/kg/day, p.o.) for 1 and 5 days and this group served as the negative control and treated groups received different formulation.
(§7) All drug solutions were prepared in 40% aqueous alcohol, adjusting the pH in the range of 5.0-10.0 for evaluation of alcohol induced hangover and CNS related biochemical parameters.

[12] = tested on: aspartate aminotransferase (AST); test: Hepatoprotection study, serum AST, alcohol 5 days; assay type: in vivo, Wistar albino rats; settings: Pro: Protection (%), rats, alcohol 4 gm/kg/day p.o.
[13] = tested on: Interferon gamma (IFN-γ); test: CNS/immunology study, serum IFN-gamma, alcohol 5 days; assay type: in vivo, Wistar albino rats; settings: Pro: Protection (%), rats, alcohol 5 Day
Text: as §3, §1

[14] = tested on: acetylcholinesterase activity of brain homogenate; settings: Hangover study, 1 Day alcohol; ingredient amounts in mass concentration (%)
Procedure: as §4, §5, §6, §7

[15] = tested on: interleukin-12 (IL-12) from brain homogenate; test: CNS study, IL-12 from brain homogenate, alcohol 5 days; assay type: in vivo, Wistar albino rats; settings: rats, alcohol 5 Day; for Brain IL12 Pro: Pro: Protection (%)
[16] = tested on: alkaline phosphatase (ALP); settings: Pro: Protection (%); rats, alcohol 4 gm/kg/day p.o., 5 days, serum
Procedure: The levels of alanine aminotransferase (ALT), aspartate aminotransferase (AST) and alkaline phosphatise (ALP) in serum were measured using commercial spectrophotometric kit bought from Span Diagnostic Ltd. (www.span.in) according to the manufacturer's protocols.
12-16 hours after the last dose, the animals were sacrificed and blood samples were collected for estimation of biochemical parameters.
Male Wistar albino rats weighing 150-200 g were procured and randomly divided into groups consisting of twelve (12) animals in each group. Hepatoprotection was induced by alcohol in rats by oral administration of 30% alcohol (4 gm/kg/day, p.o.) for 5 days and this group served as the negative control and treated groups received different formulation.
All drug solutions were prepared in 40% aqueous alcohol, adjusting the pH in the range of 5.0-10.0 for evaluation of alcohol induced Hepatoprotection. This solution was further diluted with distilled water to obtain 30% aqueous alcoholic solution and administered orally by gavage to different rats group of step (a).

[17] = tested on: Monocyte chemoattractant protein-1 (MCP-1) from brain homogenate; test: CNS study, MCP-1 from brain homogenate, alcohol 5 days; assay type: in vivo, Wistar albino rats; settings: rats, alcohol 5 Day; for Brain MCP-1 Pro: Pro: Protection (%)
[18] = tested on: Monocyte chemoattractant protein-1 (MCP-1); test: CNS/immunology study, serum MCP-1, alcohol 5 days; assay type: in vivo, Wistar albino rats; settings: Pro: Protection (%), rats, alcohol 5 Day
Procedure: as §2, §1

SMILES | ALT Pro [1] [%] | Brain IL12 Pro (Protection) [2] [%] | Brain MCP-1 Pro (Protection) [3] [%] | IL12 Pro (Protection) [4] [%] | CRP Pro (Protection) [5] [%] | MCP-1 Pro (Protection) [6] [%] | WATER MAZE Pro [7] [%] | IL12 Pro [8] [%] | IFN-Gamma Pro (Protection) [9] [%] | CRP Pro [10] [%] | ACHe Pro [11] [%] | AST Pro [12] [%] | IFN-Gamma Pro [13] [%] | ACHe Pro (Protection) [14] [%] | Brain IL12 Pro [15] [%] | ALP Pro [16] [%] | Brain MCP-1 Pro [17] [%] | MCP-1 Pro [18] [%] | Brain IL12 Syn ([15]; Syn: Synergism (%)) [%] | Brain MCP-1 Syn ([17]; Syn: Synergism (%)) [%]
CC1(C(=O)O)CCC2(C)CCC3(C)C(=CC(=O)C4C5(C)CCC(OC6OC(C(=O)O)C(O)C(O)C6OC6OC(C(=O)O)C(O)C(O)C6O)C(C)(C)C5CCC43C)C2C1 (stereo not drawn) [0.1 GA, 18β-GA] | 4.24 | 3.16 | 4.25 | 2.6 | 5.15 | 3.79 | 5.32 | 5.85 | 2.58 | 5.19 | 9.4 | 8.25 | 0 | 11.79 | 3.66 | 6.29 | 3.58 | 0 | – | –
C/C=C/C=C/C(=O)[O-].[K+] [0.1 KS, Potassium Sorbate] | 0.11 | 0.24 | 0.19 | 0.89 | 1.2 | 0.16 | 1.31 | 1.2 | 0.11 | 0.87 | 0 | 0.09 | 0 | 0.24 | 0.00 | 0 | 0 | 1.04 | 0 | 0
CC1(C(=O)O)CCC2(C)CCC3(C)C(=CC(=O)C4C5(C)CCC(OC6OC(C(=O)O)C(O)C(O)C6OC6OC(C(=O)O)C(O)C(O)C6O)C(C)(C)C5CCC43C)C2C1 (stereo not drawn) [0.3 GA, 18β-GA] | 25.62 | – | 18.92 | – | 11.21 | 13.97 | 15.57 | 10.07 | 7.85 | 15.63 | 21.5 | 20.46 | 23.18 | – | 15.63 | 11.68 | 21.36 | 15.46 | – | –
OC[C@@H](O)[C@@H](O)[C@H](O)[C@H](O)CO [0.5 Man, D-Mannitol] | 3.59 | 4.25 | – | 3.59 | – | 3.27 | 4.95 | – | 3.51 | – | 5.22 | 4.28 | – | 4.12 | – | 4.78 | 2.75 | – | – | –
C[C@H](N)C(=O)N[C@@H](CCC(N)=O)C(=O)O [1 DP, L-Ala-L-Gln] (H-Ala-Gln-OH) | 13.4 | 10.53 | 3.58 | 6.13 | 31.3 | 20.74 | 22.38 | 16.44 | 12.25 | 6.33 | 3.91 | 15.68 | 8.89 | – | 10.30 | 18.96 | – | 7.14 | – | –
OC[C@@H](O)[C@@H](O)[C@H](O)[C@H](O)CO [1.2 Man, D-Mannitol] | 23.19 | 12.28 | 21.28 | 13.45 | 8.68 | 11.85 | 12.84 | – | 7.79 | – | 17.58 | 22 | – | 21.54 | 13.92 | 24.48 | 14.28 | – | – | –
C[C@H](N)C(=O)N[C@@H](CCC(N)=O)C(=O)O [1.5 DP, L-Ala-L-Gln] (H-Ala-Gln-OH) | 14.68 | 18.26 | 14.96 | 20.11 | 26.13 | 11.04 | 24.53 | 22.53 | 20.58 | 11.97 | 15.29 | 20.25 | – | 21.14 | – | 22.35 | – | 11.01 | – | –
C[C@H](N)C(=O)N[C@@H](CCC(N)=O)C(=O)O [1.25 DP, L-Ala-L-Gln] (H-Ala-Gln-OH) | 17.59 | 7.02 | 17.02 | – | 10.61 | 14.22 | 10.36 | 22.71 | 10.44 | – | 9.7 | 22 | 13.09 | 20.33 | 15.82 | 22.73 | – | 8.14 | – | –
C[C@H](N)C(=O)N[C@@H](CCC(N)=O)C(=O)O [2.0 DP, L-Ala-L-Gln] (H-Ala-Gln-OH) | 38.83 | 26.34 | 23.54 | 31.9 | 33.14 | 21.43 | 50.36 | 29.54 | 25.96 | 27.24 | 36.85 | 30.72 | 22.91 | 31.79 | – | 28.68 | 24.36 | 19.16 | – | –
OC[C@@H](O)[C@@H](O)[C@H](O)[C@H](O)CO [2.5 Man, D-Mannitol] | 38.4 | 23.16 | 27.66 | 21.4 | 18.33 | – | 25.4 | – | 18.22 | – | 30.61 | 42.57 | – | 45.12 | 28.33 | 34.75 | 24.65 | – | – | –
C[C@H](N)C(=O)N[C@@H](CCC(N)=O)C(=O)O [3 DP, L-Ala-L-Gln] (H-Ala-Gln-OH) | 29.7 | – | – | 30.98 | 41.82 | 29.69 | 59.17 | 32.6 | 31.08 | 27.59 | 59.25 | 32.95 | 30.24 | 59.25 | 27.57 | 29.08 | – | 13.51 | – | –
